{"source": "patent US11730746B2", "about": "“17beta-heterocyclyl-digitalis like compounds for the treatment of heart failure” (priority 2018, dated 2023)", "key": {"Adrenergic α1B": {"target": "T1, Adrenergic α1B (Rattus norvegicus, UniProt P15823)", "T1 construct": "Eurofins 203200; host or cells: crude membrane preparation", "T1 sequence (P15823 whole entry)": "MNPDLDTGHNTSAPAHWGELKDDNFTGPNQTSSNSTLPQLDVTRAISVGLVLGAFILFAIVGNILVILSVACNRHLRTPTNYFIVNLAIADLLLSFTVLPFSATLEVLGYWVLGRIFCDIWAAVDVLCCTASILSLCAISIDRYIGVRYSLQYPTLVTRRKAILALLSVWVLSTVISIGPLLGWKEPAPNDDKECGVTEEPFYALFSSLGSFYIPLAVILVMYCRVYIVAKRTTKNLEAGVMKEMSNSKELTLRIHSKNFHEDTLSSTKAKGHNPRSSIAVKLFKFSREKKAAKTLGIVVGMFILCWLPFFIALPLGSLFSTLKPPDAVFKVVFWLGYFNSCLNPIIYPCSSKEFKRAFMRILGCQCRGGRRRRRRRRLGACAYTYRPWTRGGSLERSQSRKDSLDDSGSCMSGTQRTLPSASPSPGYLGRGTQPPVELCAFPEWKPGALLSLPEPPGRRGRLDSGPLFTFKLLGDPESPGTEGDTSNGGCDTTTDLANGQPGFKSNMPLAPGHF", "assay": "Receptor binding 203200", "experimental": "(§1) Radioligand binding to a panel of receptors was carried out by Eurofins on crude membrane preparations according to published procedures and by using appropriate reference standard (Eurofins, CVie 101 compound code PT #1207859, study #AB76416, quote #68407-1, for Cvie Therapeutics Limited, Taiwan (R.OC.) on Mar. 5, 2017). CVie 101 was tested at the concentration of 10 μM. No significant interaction was documented, except for Sodium Channel, site 2 from rat (cat #279510), where a significant response (≥50%) was noted (Table 7)."}, "Monoamine Oxidase MAO-A": {"target": "T2, Monoamine Oxidase MAO-A (Homo sapiens, UniProt P21397)", "T2 construct": "Eurofins 140010", "T2 sequence (P21397 whole entry)": "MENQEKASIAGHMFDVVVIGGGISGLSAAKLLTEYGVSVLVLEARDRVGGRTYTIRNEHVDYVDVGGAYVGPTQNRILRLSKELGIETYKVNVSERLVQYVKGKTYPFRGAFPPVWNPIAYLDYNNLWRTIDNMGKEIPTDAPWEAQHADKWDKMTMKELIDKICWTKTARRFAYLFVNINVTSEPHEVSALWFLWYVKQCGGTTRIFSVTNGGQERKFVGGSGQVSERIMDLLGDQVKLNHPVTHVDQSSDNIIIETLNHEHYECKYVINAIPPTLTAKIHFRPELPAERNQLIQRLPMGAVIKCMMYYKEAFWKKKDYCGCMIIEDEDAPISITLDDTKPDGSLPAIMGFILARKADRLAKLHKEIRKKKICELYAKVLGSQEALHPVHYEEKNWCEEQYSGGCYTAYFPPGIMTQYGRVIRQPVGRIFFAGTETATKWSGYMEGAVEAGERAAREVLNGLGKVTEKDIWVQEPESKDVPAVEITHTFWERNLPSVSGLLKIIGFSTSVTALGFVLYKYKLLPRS", "assay": "Eurofins panel 140010", "format": "biochemical", "experimental": "as §1"}, "Androgen (Testosterone)": {"test_system": "Androgen (Testosterone)", "assay": "Receptor binding 206000", "parameters": "species or system human", "conditions": "10 μM", "experimental": "as §1"}, "[1]": {"target": "T3, Transporter, Norepinephrine (NET) (Homo sapiens, UniProt P23975)", "T3 construct": "Eurofins (contract assay) 204410", "T3 sequence (P23975 whole entry)": "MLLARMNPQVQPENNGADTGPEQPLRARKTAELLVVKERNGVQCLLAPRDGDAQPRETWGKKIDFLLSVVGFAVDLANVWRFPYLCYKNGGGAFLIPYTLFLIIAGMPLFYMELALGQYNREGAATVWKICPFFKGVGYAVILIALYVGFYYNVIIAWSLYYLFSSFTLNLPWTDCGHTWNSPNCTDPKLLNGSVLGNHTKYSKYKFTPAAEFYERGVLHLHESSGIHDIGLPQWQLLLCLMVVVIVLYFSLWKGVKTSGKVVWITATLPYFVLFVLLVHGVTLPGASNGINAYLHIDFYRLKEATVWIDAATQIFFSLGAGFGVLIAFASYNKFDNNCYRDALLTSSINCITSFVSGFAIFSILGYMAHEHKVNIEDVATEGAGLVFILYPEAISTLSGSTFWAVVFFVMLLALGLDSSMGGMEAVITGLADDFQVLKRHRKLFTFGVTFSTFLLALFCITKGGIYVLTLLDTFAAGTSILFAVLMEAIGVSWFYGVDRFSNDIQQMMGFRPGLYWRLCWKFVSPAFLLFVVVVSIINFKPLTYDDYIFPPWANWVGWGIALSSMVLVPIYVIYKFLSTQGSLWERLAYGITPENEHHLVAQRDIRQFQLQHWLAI", "assay": "Receptor binding 204410", "experimental": "as §1"}, "STZ diabetic rats": {"test_system": "STZ diabetic rats", "assay": "Haemodynamics in streptozotocin diabetic rats (echocardiography)", "format": "in vivo, rat", "conditions": "20 mg/kg os, after treatment, mean ± SD, n = 12", "experimental": "Sprague Dawley male rats (150-175 g) were made diabetic by a single injection into the tail vein of a solution of streptozotocin (STZ, 50 mg/kg, Sigma-Aldrich), freshly prepared in 0.1 M sodium citrate buffer, pH 4.5. Control rats received citrate buffer. Fasting glycaemia was measured after 1 week and rats with values >400 mg/dl were considered diabetic.\nEight-nine weeks after STZ injection, rats were submitted to transthoracic echocardiographic and Doppler evaluation performed under pentobarbital anesthesia. Two-dimensionally guided M-mode recordings were used to obtain short-axis measurements of left ventricular end-diastolic diameter (LVEDD), left ventricular end-systolic diameter (LVESD), posterior (PW) and septal (SW) diastolic wall thickness according to the American Society of Echocardiography guidelines (Lang R M et al. Eur J Echocardiography 2006; 7:79-108). Fractional shortening was calculated as FS=(LVEDD-LVESD)/LVEDD. Relative wall thickness was calculated as PWTd+IVSTd/LVEDD.\nMitral inflow was measured by pulsed Doppler at the tips of mitral leaflets from an apical 4-chamber view to obtain early and late filling velocities (E, A) and deceleration time of early filling velocity (DT). The deceleration slope was calculated as E/DT ratio. The mitral deceleration index was calculated as DT/E ratio.\nTissue Doppler Imaging (TDI) was evaluated from the apical 4-chamber view to record septal mitral annular movements, i.e., peak myocardial systolic (s′) and early and late diastolic velocity (e′ and a′).\nCompound CVie 101 was orally administered to STZ injected rats at the dose of 20 mg/kg and echocardiographic parameters were measured after 1 h."}, "Angiotensin AT1": {"target": "T4, Angiotensin AT1 (Homo sapiens, UniProt P30556)", "T4 construct": "Eurofins 210030; host or cells: crude membrane preparation", "T4 sequence (P30556 whole entry)": "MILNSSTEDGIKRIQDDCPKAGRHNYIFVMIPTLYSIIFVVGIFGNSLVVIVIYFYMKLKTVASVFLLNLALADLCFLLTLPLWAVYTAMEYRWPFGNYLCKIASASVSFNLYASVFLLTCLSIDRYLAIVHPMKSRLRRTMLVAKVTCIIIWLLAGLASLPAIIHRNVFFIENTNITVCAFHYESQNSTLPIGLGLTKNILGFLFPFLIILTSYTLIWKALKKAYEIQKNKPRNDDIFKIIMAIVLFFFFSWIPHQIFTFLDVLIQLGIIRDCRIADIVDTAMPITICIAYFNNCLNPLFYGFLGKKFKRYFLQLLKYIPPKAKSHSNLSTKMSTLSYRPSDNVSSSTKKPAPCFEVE", "assay": "Receptor binding 210030", "experimental": "as §1"}, "[2]": {"test_system": "Calcium Channel L-type, Dihydropyridine", "assay": "Receptor binding 214600", "parameters": "species or system rat", "conditions": "10 μM", "experimental": "as §1"}, "Adenosine A2A": {"target": "T5, Adenosine A2A (Homo sapiens, UniProt P29274)", "T5 construct": "Eurofins 200610; host or cells: crude membrane preparation", "assay": "Receptor binding 200610", "experimental": "as §1"}, "[3]": {"test_system": "ATPase, Ca++, skeletal muscle, pig", "assay": "Eurofins panel 107480", "format": "biochemical", "conditions": "10 μM"}, "Estrogen ERβ": {"target": "T6, Estrogen ERβ (Homo sapiens, UniProt Q92731)", "T6 construct": "Eurofins (contract assay) 226050", "T6 sequence (Q92731 whole entry)": "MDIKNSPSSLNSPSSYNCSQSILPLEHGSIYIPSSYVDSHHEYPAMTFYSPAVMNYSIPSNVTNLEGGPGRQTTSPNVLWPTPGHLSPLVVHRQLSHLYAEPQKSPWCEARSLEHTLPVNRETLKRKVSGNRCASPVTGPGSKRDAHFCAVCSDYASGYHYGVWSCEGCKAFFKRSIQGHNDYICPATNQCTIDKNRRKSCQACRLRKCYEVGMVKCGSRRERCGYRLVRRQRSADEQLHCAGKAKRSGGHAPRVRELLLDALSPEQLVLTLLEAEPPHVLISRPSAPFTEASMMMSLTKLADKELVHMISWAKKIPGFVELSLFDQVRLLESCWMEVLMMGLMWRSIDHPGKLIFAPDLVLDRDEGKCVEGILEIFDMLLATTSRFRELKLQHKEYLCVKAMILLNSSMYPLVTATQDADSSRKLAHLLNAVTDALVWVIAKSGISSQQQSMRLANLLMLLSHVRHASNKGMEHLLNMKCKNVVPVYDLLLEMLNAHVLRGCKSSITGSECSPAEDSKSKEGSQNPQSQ", "assay": "Receptor binding 226050", "experimental": "as §1"}, "Muscarinic M5": {"target": "T7, Muscarinic M5 (Homo sapiens, UniProt P08912)", "T7 construct": "Eurofins (contract assay) 253010", "assay": "Receptor binding 253010", "experimental": "as §1"}, "[4]": {"test_system": "Serotonin (5-Hydroxytryptamine) 5-HT1, non selective", "assay": "Receptor binding 271010", "parameters": "species or system rat", "conditions": "10 μM", "experimental": "as §1"}, "Angiotensin AT2": {"target": "T8, Angiotensin AT2 (Homo sapiens, UniProt P50052)", "T8 construct": "Eurofins 210120; host or cells: crude membrane preparation", "T8 sequence (P50052 whole entry)": "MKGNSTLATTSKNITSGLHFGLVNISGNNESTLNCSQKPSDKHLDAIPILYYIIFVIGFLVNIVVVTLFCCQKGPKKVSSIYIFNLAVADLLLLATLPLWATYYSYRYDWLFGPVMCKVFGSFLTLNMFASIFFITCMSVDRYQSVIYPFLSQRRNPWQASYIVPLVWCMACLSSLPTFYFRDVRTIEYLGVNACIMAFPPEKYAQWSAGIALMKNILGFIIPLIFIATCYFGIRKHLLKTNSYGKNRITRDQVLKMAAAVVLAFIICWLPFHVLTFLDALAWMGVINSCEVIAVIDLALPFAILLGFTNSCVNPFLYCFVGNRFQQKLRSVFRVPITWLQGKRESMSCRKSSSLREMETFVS", "assay": "Receptor binding 210120", "experimental": "as §1"}, "Glucocorticoid": {"target": "T9, Glucocorticoid (Homo sapiens, UniProt P04150)", "T9 construct": "Eurofins (contract assay) 232030", "assay": "Receptor binding 232030", "experimental": "as §1"}, "Potassium Channel (KATP)": {"target": "T10, Potassium Channel (KATP) (Cricetus cricetus, UniProt Q09427)", "T10 construct": "Eurofins (contract assay) 265600", "T10 sequence (Q09427 whole entry)": "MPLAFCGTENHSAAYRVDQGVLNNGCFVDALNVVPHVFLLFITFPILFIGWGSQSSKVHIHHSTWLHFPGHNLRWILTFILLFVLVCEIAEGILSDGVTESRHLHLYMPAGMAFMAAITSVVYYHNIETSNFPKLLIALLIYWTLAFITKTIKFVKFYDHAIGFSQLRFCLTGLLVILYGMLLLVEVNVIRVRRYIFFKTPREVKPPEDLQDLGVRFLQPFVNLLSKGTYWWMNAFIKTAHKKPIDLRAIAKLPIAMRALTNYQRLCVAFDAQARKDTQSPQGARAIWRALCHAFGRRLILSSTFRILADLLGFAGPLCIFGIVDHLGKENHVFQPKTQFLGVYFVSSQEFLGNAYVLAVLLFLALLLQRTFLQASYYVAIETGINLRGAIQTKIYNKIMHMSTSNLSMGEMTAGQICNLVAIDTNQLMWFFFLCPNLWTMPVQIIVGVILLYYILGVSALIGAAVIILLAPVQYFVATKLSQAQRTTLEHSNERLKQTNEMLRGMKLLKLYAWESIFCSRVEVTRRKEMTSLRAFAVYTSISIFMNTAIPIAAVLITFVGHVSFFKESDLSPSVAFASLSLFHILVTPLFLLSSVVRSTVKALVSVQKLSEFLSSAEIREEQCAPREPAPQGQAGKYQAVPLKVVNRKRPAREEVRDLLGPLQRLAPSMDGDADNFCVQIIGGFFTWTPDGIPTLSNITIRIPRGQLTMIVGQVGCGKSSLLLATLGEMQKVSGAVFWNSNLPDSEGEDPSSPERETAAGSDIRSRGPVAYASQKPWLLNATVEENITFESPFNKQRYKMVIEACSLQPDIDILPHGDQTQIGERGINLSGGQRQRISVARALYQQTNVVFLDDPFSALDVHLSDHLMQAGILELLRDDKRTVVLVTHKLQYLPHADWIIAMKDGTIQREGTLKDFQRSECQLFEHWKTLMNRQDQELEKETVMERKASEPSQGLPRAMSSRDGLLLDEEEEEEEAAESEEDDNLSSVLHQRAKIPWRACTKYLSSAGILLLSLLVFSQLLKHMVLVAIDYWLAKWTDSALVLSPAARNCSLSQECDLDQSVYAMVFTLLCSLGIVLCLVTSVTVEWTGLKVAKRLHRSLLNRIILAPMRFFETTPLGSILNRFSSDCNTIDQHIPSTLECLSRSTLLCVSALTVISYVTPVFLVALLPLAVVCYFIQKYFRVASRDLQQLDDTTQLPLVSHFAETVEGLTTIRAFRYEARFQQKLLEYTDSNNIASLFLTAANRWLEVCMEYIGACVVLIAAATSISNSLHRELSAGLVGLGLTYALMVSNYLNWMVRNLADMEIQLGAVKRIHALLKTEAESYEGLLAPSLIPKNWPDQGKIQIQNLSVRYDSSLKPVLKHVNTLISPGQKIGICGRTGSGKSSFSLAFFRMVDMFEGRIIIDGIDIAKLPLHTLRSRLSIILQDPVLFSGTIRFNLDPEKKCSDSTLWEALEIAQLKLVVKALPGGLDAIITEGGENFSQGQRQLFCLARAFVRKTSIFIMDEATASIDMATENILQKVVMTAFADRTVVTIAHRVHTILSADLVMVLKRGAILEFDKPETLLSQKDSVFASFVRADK", "assay": "Receptor binding 265600", "parameters": "species or system hamster", "experimental": "as §1"}, "Aldosterone": {"target": "T11, Aldosterone (Rattus norvegicus, UniProt P22199)", "T11 construct": "Eurofins 204600", "assay": "Receptor binding 204600", "experimental": "as §1"}, "Histamine H1": {"target": "T12, Histamine H1 (Homo sapiens, UniProt P35367)", "T12 construct": "Eurofins (contract assay) 239610", "T12 sequence (P35367 whole entry)": "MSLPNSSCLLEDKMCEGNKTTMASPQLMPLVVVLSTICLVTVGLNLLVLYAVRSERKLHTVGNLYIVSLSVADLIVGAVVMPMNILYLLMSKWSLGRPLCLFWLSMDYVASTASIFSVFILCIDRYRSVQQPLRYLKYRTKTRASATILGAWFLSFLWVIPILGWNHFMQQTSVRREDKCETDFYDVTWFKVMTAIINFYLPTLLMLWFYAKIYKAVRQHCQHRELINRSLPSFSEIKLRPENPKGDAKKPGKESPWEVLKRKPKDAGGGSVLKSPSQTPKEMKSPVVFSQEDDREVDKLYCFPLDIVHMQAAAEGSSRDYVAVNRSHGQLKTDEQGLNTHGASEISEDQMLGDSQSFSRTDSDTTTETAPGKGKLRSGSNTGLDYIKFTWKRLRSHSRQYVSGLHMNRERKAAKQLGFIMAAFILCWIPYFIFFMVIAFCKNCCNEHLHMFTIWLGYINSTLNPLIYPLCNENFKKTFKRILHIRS", "assay": "Receptor binding 239610", "experimental": "as §1"}, "Ryanodine RyR3": {"target": "T13, Ryanodine RyR3 (Rattus norvegicus, UniProt A0ABK0LPH6)", "T13 construct": "Eurofins (contract assay) 270300", "assay": "Receptor binding 270300", "experimental": "as §1"}}, "data": [{"smiles": "C[C@]12CC[C@H](O)C[C@H]1CCC1C2CC[C@]2(C)[C@@H](c3c[nH]cn3)CC[C@]12O", "note": "(stereo partly drawn) [CVie 101, 3β-hydroxy-5β-10β-methyl-13β-methyl-14β-hydroxy-17β-(imidazol-4-yl)androstane]", "values": [{"measurement": "inhibition at 10 µM", "setting": "Adrenergic α1B", "value": 0, "unit": "%"}, {"measurement": "inhibition at 10 µM", "setting": "Monoamine Oxidase MAO-A", "value": 4, "unit": "%"}, {"measurement": "% inhib", "setting": "Androgen (Testosterone)", "value": 1, "unit": "%"}, {"measurement": "inhibition at 10 µM", "setting": "[1]", "value": 2, "unit": "%"}, {"measurement": "A (late filling velocity of mitral inflow)", "setting": "STZ diabetic rats", "value": "0.76 ± 0.17", "unit": "m/s"}, {"measurement": "A′ (TDI late relaxation velocity)", "setting": "STZ diabetic rats", "value": "28.7 ± 6.6", "unit": "cm/s"}, {"measurement": "CO (cardiac output)", "setting": "STZ diabetic rats", "value": "219.0 ± 76.7", "unit": "mL/min"}, {"measurement": "DT (deceleration time of E wave)", "setting": "STZ diabetic rats", "value": "47.7 ± 4.8", "unit": "ms"}, {"measurement": "DT/E (mitral deceleration index)", "setting": "STZ diabetic rats", "value": "51.0 ± 10.2", "unit": "ms·s/m"}, {"measurement": "E (early filling velocity of mitral inflow)", "setting": "STZ diabetic rats", "value": "0.96 ± 0.14", "unit": "m/s"}, {"measurement": "E/A (index of LV function)", "setting": "STZ diabetic rats", "value": "1.29 ± 0.22"}, {"measurement": "E/DT (deceleration slope)", "setting": "STZ diabetic rats", "value": "20.3 ± 4.1", "unit": "m/s2"}, {"measurement": "E/e′ (index of LV filling pressure)", "setting": "STZ diabetic rats", "value": "38.0 ± 4.9"}, {"measurement": "E′ (TDI early relaxation velocity)", "setting": "STZ diabetic rats", "value": "25.2 ± 1.9", "unit": "cm/s"}, {"measurement": "FS (fractional shortening)", "setting": "STZ diabetic rats", "value": "45.1 ± 3.4", "unit": "%"}, {"measurement": "HR (heart rate)", "setting": "STZ diabetic rats", "value": "262 ± 48.1", "unit": "beat/min"}, {"measurement": "SV (stroke volume)", "setting": "STZ diabetic rats", "value": "0.82 ± 0.21", "unit": "ml/beat"}, {"measurement": "S′ (TDI contraction velocity)", "setting": "STZ diabetic rats", "value": "23.8 ± 3.6", "unit": "cm/s"}, {"measurement": "inhibition at 10 µM", "setting": "Angiotensin AT1", "value": 12, "unit": "%"}, {"measurement": "% inhib", "setting": "[2]", "value": "−8", "unit": "%"}, {"measurement": "inhibition at 10 µM", "setting": "Adenosine A2A", "value": 0, "unit": "%"}, {"measurement": "% inhib", "setting": "[3]", "value": 14, "unit": "%"}, {"measurement": "inhibition at 10 µM", "setting": "Estrogen ERβ", "value": 17, "unit": "%"}, {"measurement": "inhibition at 10 µM", "setting": "Muscarinic M5", "value": 21, "unit": "%"}, {"measurement": "% inhib", "setting": "[4]", "value": 7, "unit": "%"}, {"measurement": "inhibition at 10 µM", "setting": "Angiotensin AT2", "value": -1, "unit": "%"}, {"measurement": "inhibition at 10 µM", "setting": "Glucocorticoid", "value": 10, "unit": "%"}, {"measurement": "inhibition at 10 µM", "setting": "Potassium Channel (KATP)", "value": -6, "unit": "%"}, {"measurement": "inhibition at 10 µM", "setting": "Aldosterone", "value": 6, "unit": "%"}, {"measurement": "inhibition at 10 µM", "setting": "Histamine H1", "value": 13, "unit": "%"}, {"measurement": "inhibition at 10 µM", "setting": "Ryanodine RyR3", "value": 8, "unit": "%"}]}]}
